Measurements: BigSolDB 2.1

COC(=O)/C=C/c1ccc(O)c(OC)c1
solubility (mole fraction) (in ethyl acetate, 303.15 K): 0.217
solubility (mole fraction) (in ethyl acetate, 307.15 K): 0.247
solubility (mole fraction) (in ethyl acetate, 312.15 K): 0.279
solubility (mole fraction) (in ethyl acetate, 317.15 K): 0.305
solubility (mole fraction) (in ethyl acetate, 321.15 K): 0.334
solubility (mole fraction) (in n-hexane, 303.15 K): 0.00112
solubility (mole fraction) (in n-hexane, 307.15 K): 0.00211
solubility (mole fraction) (in n-hexane, 312.15 K): 0.00251
solubility (mole fraction) (in n-hexane, 317.15 K): 0.00354
solubility (mole fraction) (in n-hexane, 321.15 K): 0.00416
solubility (mole fraction) (in tert-amyl alcohol, 303.15 K): 0.215
solubility (mole fraction) (in tert-amyl alcohol, 307.15 K): 0.246
solubility (mole fraction) (in tert-amyl alcohol, 312.15 K): 0.287
solubility (mole fraction) (in tert-amyl alcohol, 317.15 K): 0.312
solubility (mole fraction) (in tert-amyl alcohol, 321.15 K): 0.342
solubility (mole fraction) (in tert-butanol, 303.15 K): 0.182
solubility (mole fraction) (in tert-butanol, 307.15 K): 0.209
solubility (mole fraction) (in tert-butanol, 312.15 K): 0.247
solubility (mole fraction) (in tert-butanol, 317.15 K): 0.295
solubility (mole fraction) (in tert-butanol, 321.15 K): 0.325

COC(=O)/C=C/c1ccc(O)cc1
solubility (mole fraction) (in ethyl acetate, 303.15 K): 0.0856
solubility (mole fraction) (in ethyl acetate, 307.15 K): 0.0915
solubility (mole fraction) (in ethyl acetate, 312.15 K): 0.0997
solubility (mole fraction) (in ethyl acetate, 317.15 K): 0.108
solubility (mole fraction) (in ethyl acetate, 321.15 K): 0.113
solubility (mole fraction) (in n-hexane, 303.15 K): 2.81e-05
solubility (mole fraction) (in n-hexane, 307.15 K): 4.38e-05
solubility (mole fraction) (in n-hexane, 312.15 K): 6.18e-05
solubility (mole fraction) (in n-hexane, 317.15 K): 8.13e-05
solubility (mole fraction) (in n-hexane, 321.15 K): 0.000124
solubility (mole fraction) (in tert-amyl alcohol, 303.15 K): 0.116
solubility (mole fraction) (in tert-amyl alcohol, 307.15 K): 0.126
solubility (mole fraction) (in tert-amyl alcohol, 312.15 K): 0.154
solubility (mole fraction) (in tert-amyl alcohol, 317.15 K): 0.174
solubility (mole fraction) (in tert-amyl alcohol, 321.15 K): 0.201
solubility (mole fraction) (in tert-butanol, 303.15 K): 0.0977
solubility (mole fraction) (in tert-butanol, 307.15 K): 0.113
solubility (mole fraction) (in tert-butanol, 312.15 K): 0.128
solubility (mole fraction) (in tert-butanol, 317.15 K): 0.143
solubility (mole fraction) (in tert-butanol, 321.15 K): 0.171

COC(=O)/C=C/c1cc(OC)c(O)c(OC)c1
solubility (mole fraction) (in ethyl acetate, 303.15 K): 0.117
solubility (mole fraction) (in ethyl acetate, 307.15 K): 0.128
solubility (mole fraction) (in ethyl acetate, 312.15 K): 0.147
solubility (mole fraction) (in ethyl acetate, 317.15 K): 0.157
solubility (mole fraction) (in ethyl acetate, 321.15 K): 0.168
solubility (mole fraction) (in n-hexane, 303.15 K): 0.000292
solubility (mole fraction) (in n-hexane, 307.15 K): 0.000383
solubility (mole fraction) (in n-hexane, 312.15 K): 0.000495
solubility (mole fraction) (in n-hexane, 317.15 K): 0.000743
solubility (mole fraction) (in n-hexane, 321.15 K): 0.000804
solubility (mole fraction) (in tert-amyl alcohol, 303.15 K): 0.0264
solubility (mole fraction) (in tert-amyl alcohol, 307.15 K): 0.0336
solubility (mole fraction) (in tert-amyl alcohol, 312.15 K): 0.0644
solubility (mole fraction) (in tert-amyl alcohol, 317.15 K): 0.0926
solubility (mole fraction) (in tert-amyl alcohol, 321.15 K): 0.14
solubility (mole fraction) (in tert-butanol, 303.15 K): 0.0184
solubility (mole fraction) (in tert-butanol, 307.15 K): 0.0234
solubility (mole fraction) (in tert-butanol, 312.15 K): 0.0523
solubility (mole fraction) (in tert-butanol, 317.15 K): 0.0743
solubility (mole fraction) (in tert-butanol, 321.15 K): 0.0973
